Data published in patent US20070025902A1, “RECOVERY OF FLUORINATED CARBOXYLIC ACID FROM ADSORBENT PARTICLES” (priority 2005, published 2007).
Marks after values point to notes of the source that are not given here.

Assay: Determination of bio-accumulation: urinary clearance pharmacokinetic study in rats
Settings: oral gavage; for Compound-related Effects: clinical signs of toxicity and gross necropsy 96 hours post-dose
[1] = parent compound recovered in urine after 96 h, 73 micro Moles per kg body weight
[2] = renal elimination half-life of parent compound from urine, 73 micro Moles per kg body weight, exponential least squares curve fitting
[3] = 73 micro Moles per kg body weight
[4] = no parent compound in urine, based on elimination of the major metabolite C3F7—O—CHFCOO−, 73 micro Moles per kg

## N.O=C(O)C(F)(F)C(F)OC(F)(F)C(F)(F)C(F)(F)F (centres unmarked) [Compound 13, C3F7—O—CFH—CF2COONH4]
[1]
  % Recovery (96 h): 94%
[2]
  T½: 11 h

## N.O=C(O)C(F)(F)C(F)OC(F)(F)C(F)(F)C(F)(F)OC(F)(F)F (centres unmarked) [Compound 11, CF3—O—CF2—CF2—CF2—O—CHF—CF2—COONH4]
[1]
  % Recovery (96 h): 84%
[2]
  T½: 12 h

## N.O=C(O)C(F)(F)C(F)(F)C(F)(F)C(F)(F)C(F)(F)C(F)(F)C(F)(F)F [Compound C-1, C7F15COONH4, reference compound]
[3]
  Compound-related Effects: Hepatomegaly
[1]
  % Recovery (96 h): 6%
[2]
  T½ (h): ˜550 h

## N.O=C(O)C(F)(F)OC(F)(F)OC(F)(F)F [Compound 2, CF3—OCF2—O—CF2—COONH4]
[1]
  % Recovery (96 h): 96%
[2]
  T½: 12 h

## N.O=C(O)C(F)(F)C(F)(F)OC(F)(F)C(F)(F)C(F)(F)F [Compound 8, C3F7—O—CF2—CF2—COONH4]
[1]
  % Recovery (96 h): 82%
[2]
  T½: 12 h

## N.O=C(O)C(F)(F)C(F)(F)OC(F)(F)C(F)(F)C(F)(F)C(F)(F)F [Compound 9, C4F9—O—CF2—CF2—COONH4]
[3]
  Compound-related Effects: Hepatomegaly
[1]
  % Recovery (96 h): 42%
[2]
  T½: 31 h

## N.O=C(O)C(F)(F)C(F)(F)OC(F)(F)C(F)(F)F [Compound 7, C2F5—O—CF2—CF2—COONH4]
[1]
  % Recovery (96 h): 100%
[2]
  T½: 10 h

## N.O=C(O)C(F)(F)OC(F)(F)C(F)(F)C(F)(F)F [Compound 5, C3F7—O—CF2—COONH4]
[1]
  % Recovery (96 h): 97%
[2]
  T½: 11 h

## N.O=C(O)C(F)(F)C(F)(F)C(F)(F)C(F)(F)C(F)(F)OC(F)C(F)(F)F (centres unmarked) [Compound 14, CF3—CFH—O—(CF2)5—COONH4]
[3]
  Compound-related Effects: Hepatomegaly
[1]
  % Recovery (96 h): 32%
[2]
  T½: 24 h

## N.O=C(O)C(F)(F)C(F)(F)OC(F)(F)F [Compound 6, CF3—O—CF2—CF2—COONH4]
[1]
  % Recovery (96 h): 100%
[2]
  T½: 11 h

## N.O=C(O)C(F)(F)OC(F)(F)C(F)(F)OC(F)(F)C(F)(F)F [Compound 10, C2F5—O—CF2—CF2—O—CF2—COONH4]
[1]
  % Recovery (96 h): 99%
[2]
  T½: 10 h

## N.O=C(O)COC(F)(F)C(F)OC(F)(F)C(F)(F)C(F)(F)F (centres unmarked) [Compound 16, C3F7—O—CFH—CF2—O—CH2—COONH4]
[4]
  % Recovery (96 h): 65* %
  T½ (h): 13* h

## N.O=C(O)C(F)OC(F)(F)C(F)(F)C(F)(F)OC(F)(F)F (centres unmarked) [Compound 12, CF3—O—CF2—CF2—CF2—O—CHF—COONH4]
[1]
  % Recovery (96 h): 95%
[2]
  T½: 11 h

## N.O=C(O)C(F)(F)OC(F)(F)C(F)(F)C(F)(F)OC(F)(F)F [Compound 4, CF3—(OCF2)3—OCF2—COONH4]
[1]
  % Recovery (96 h): 50%

## N.O=C(O)C(F)(F)OC(F)(F)C(F)(OC(F)(F)C(F)(F)C(F)(F)F)C(F)(F)F (centres unmarked) [Compound C-3, CF3CF2CF2OCF(CF3)CF2OCF2COONH4, reference compound]
[3]
  Compound-related Effects: Hepatomegaly
[1]
  % Recovery (96 h): 5%
[2]
  T½: 95 h

## N.O=C(O)C(F)(F)OC(F)(F)C(F)(F)C(F)(F)OC(F)(F)F [Compound 1, CF3—O—(CF2)3—O—CF2—COONH4]
[1]
  % Recovery (96 h): 73%

## N.O=C(O)C(F)(F)C(F)(F)C(F)(F)OC(F)C(F)(F)F (centres unmarked) [Compound 15, CF3—CFH—O—(CF2)3—COONH4]
[1]
  % Recovery (96 h): 95%
[2]
  T½: 8 h

## N.O=C(O)C(F)(F)OC(F)(F)OC(F)(F)OC(F)(F)F [Compound 3, CF3—OCF2—OCF2—OCF2—COONH4]
[1]
  % Recovery (96 h): 100%
[2]
  T½: 12 h
